One series concerns DEN-induced liver tumor. As to the kind of experiment: N-diethylnitrosamine-induced hepatocarcinoma mouse model. The format is in vivo, mice. Particulars: daily doses of 100 mg/kg for 2 months. Here is the method:
After weighing, 38 male C3/H mice received a 10 mg/kg dose of N-diethylnitrosamine (DEN) intraperitoneally, whereas a group of 5 animals was kept without DEN injection as control group. After 12 months, mice that received DEN injection were randomized by weight in two groups of each 19 animals. The mice were dosed daily orally for 2 months either with EVT801 or vehicle. On the day of termination, mice treated with EVT801 received a last dose of 30 mg/kg to take blood and tumor samples for compound concentration determination. After incision of the peritoneal cavity, blood was taken from the vena cava. Following excision and weighing of the liver, the number of tumors per liver was counted. The tumor burden was calculated as the sum of individual tumor volumes for each mouse. No blood sampling was performed on control and vehicle groups. Plasma and tumor samples were stored at −20°C until analysis. Concentration of EVT801 was determined by LC/MS-MS.

The next series in a line: Pharmacokinetics in mice. In kind it is in vivo. The following applies: mouse; for half-life / Cmax / AUC(0-t): plasma; for AUC(0-t): read-out: AUC(0–24). How it is done: Plasma samples and tumor homogenates were mixed with the precipitant solution (acetonitrile containing internal standard). The supernatant (180 µL) was transferred in a 96-well plate and 5 µL were injected. EVT801 and its main metabolite were quantified by LC-MS/MS following standard conditions.
Quality control (QC) samples and calibration samples were prepared daily by spiking mouse plasma and tumor homogenates with working solutions prepared from independent weighing. The calibration curve was calculated from calibration levels at 1, 2.5, 5, 10, 25, 50, 100, 200, 500, 1000 and 2000 ng/mL. A variation of ± 20 % versus the nominal concentrations was used as criteria for qualification of samples; at least 75 % of all standards needed to be within this window, and at least 6 concentration values within tis window were used for quantification. The concentrations for QC samples were 5, 50, 150, 450 and 1500 ng/mL. At least 66 % of all QC samples, and at least 50 % of QC samples at a given concentration were within the ± 20 % window. Quadratic regressions were applied, not forced through the origin, and weighted by 1/x (with R^2 > 0.98). The lower limit of quantification for both compounds was set to 1 ng/mL for plasma and to 3 ng/g for tumor samples.

The next series relates to Rip1-Tag2 tumors. The series can be described thus: Rip1-Tag2 transgenic mouse model. In kind it is in vivo, mice. Here is the method: The Rip1-Tag2/transgenic mouse models were used as reported previously ([29]). Briefly, treatment of mice started at the age of 12 weeks. Mice were treated daily for 16 days, and volume of each tumor was measured and calculated as described for the 4T1 mammary carcinoma mouse model below. The tumor burden was calculated as the sum of individual tumor volumes for each mouse. For the survival study, daily treatment started at the age of 12 weeks, and mice were monitored daily to detect moribund mice for euthanasia. CD31-positive vessel density within the tumors were quantified by density index (1 vessel/mm^2) measured using the Definiens software. Individual density indices were plotted as the mean ± SD for each group. Statistical significance was assessed by Kruskall–Wallis followed by Dunnet multiple comparison test.

For another series, the system named is NCI-H1703 cells. The series can be described thus: NCI-H1703 viability (ATP reduction). The format is cell-based. The following applies: Homo sapiens, in vitro. How it is done: NCI-H1703 were seeded in 96-well plates coated with 0.3 % gelatin (5 x 10^3 cells per well) and were incubated in RPMI 0.1 % FCS with VEGF-C (300 ng/mL) or VEGF-D (300 ng/mL) in the absence or presence of increasing doses of EVT801. After 5 days, viable cells were quantified with the cell Titer-glo luminescent cell viability assay (Promega) as previously described (1).

In the next series the test system is RT-HAM-001 tumors. The series can be described thus: RT-001-HAM subcutaneous patient-derived xenograft tumor mouse model. The format is in vivo, mice. Particulars: 30 mg/kg twice per day, 7-day treatment. Here is the method:
Patient-derived tumors of the same passage were transplanted subcutaneously outbred athymic (nu/nu) female HSD mice. When tumor volume reached 726 to 1,437 mm^3, 4 donor mice were sacrificed by cervical dislocation, and tumors were aseptically excised and dissected. After removing necrotic areas, tumor fragments of approximately 20 mm^3 were transferred to culture medium before grafting. A total of 108 mice were anesthetized with 100 mg/kg ketamine hydrochloride (Virbac) and 10 mg/kg xylazine (Bayer). Then, a tumor fragment was placed in the subcutaneous tissue of an incision at the level of the interscapular region as described previously ([30]). All mice from the same experiment were implanted on the same day. A total of 54 mice with RT-001-HAM established growing tumor (P6.0.0/0) between 62.5 and 196 mm^3 were allocated according to tumor volume, ensuring homogenous median and mean tumor volume in each treatment arm. Treatments with 5 mL/kg vehicle, 30 mg/kg EVT801, or 30 mg/kg pazopanib started 15 days after tumor implantation and continued twice per day until termination 7 days later. Tumor volumes were measured via a caliper three times a week during the treatment period. All animals were weighed at the same time as tumor size measurement. Plasma and fresh tumor samples were collected at different timepoints after final dose at day 7 from all mice.

pIC50: −log10 of the molar value. Read-outs that look alike come from different tables or passages of the source.

Regarding `CCn1c(N)c(-c2ncc[nH]2)c(=O)c2ccc(C#C[C@@](C)(O)COC)nc21` [EVT801], the “T/C ratio, tumor volume” value amounted to 22% with DEN-induced liver tumor; 63% in the series with Rip1-Tag2 tumors (30 mg/kg/day, 2 weeks); 16% in the series on Rip1-Tag2 tumors (100 mg/kg/day, 2 weeks); 41% with RT-HAM-001 tumors. Besides, the liver weight result in the series on DEN-induced liver tumor is given as “fully prevented the increase in liver weight”. The half-life in the series “Pharmacokinetics in mice” (Balb/c, 30 mg/kg, Balb/c mice, 30 mg/kg, read-out: T1/2 in plasma (converted)) was 2.7 h; in “Pharmacokinetics in mice” (Balb/c, 100 mg/kg, Balb/c mice, 100 mg/kg, read-out: T1/2 in plasma (converted)) it was 1.1 h; in the series “Pharmacokinetics in mice” (Balb/c, 100 mg/kg, Balb/c with 4T1 tumor, 100 mg/kg for 2 weeks), 3.2 h; in “Pharmacokinetics in mice” (SCID, 10 mg/kg, SCID mice with tumor, 10 mg/kg for 2 weeks, read-out: T1/2 in plasma (converted)) it was 0.9 h; in the series “Pharmacokinetics in mice” (SCID, 30 mg/kg, SCID mice with tumor, 30 mg/kg for 2 weeks, read-out: T1/2 in plasma (converted)), 1.6 h. The Cmax in “Pharmacokinetics in mice” (oral, 100 mg/kg/day) worked out at 8940 ng/mL; in “Pharmacokinetics in mice” (po, 30 mg/kg twice per day), 8390 ng/mL. The AUC(0-t) in “Pharmacokinetics in mice” (oral, 100 mg/kg/day) worked out at 22000 ng·h/mL; in “Pharmacokinetics in mice” (po, 30 mg/kg twice per day), 28000 ng·h/mL. Further, in “Pharmacokinetics in mice” (Balb/c with 4T1 tumor, 100 mg/kg for 2 weeks, read-out: Tissue to plasma (AUC)), the Kp stood at 0.88. Moreover, in the series on Rip1-Tag2 tumors (30 mg/kg/day, 2 weeks), the “average number of tumors per pancreas” value is listed as “three”. Also, in the series with Rip1-Tag2 tumors (30 mg/kg/day, 2 weeks), the “reduction in tumor volume” value was determined as 37%. Moreover, the “reduction of number of pancreatic tumors” value came to 67% in the series with Rip1-Tag2 tumors (30 mg/kg/day, 2 weeks) and 91% in the series with Rip1-Tag2 tumors (100 mg/kg/day, 2 weeks). In addition, the “overall survival of the mice” value in the series with Rip1-Tag2 tumors (30 and 100 mg/kg/day) is on record as “dose-dependently increased”. Besides, in the series with NCI-H1703 cells, the negative logarithm of the IC50 (pIC50) was 6.96. In the series on RT-HAM-001 tumors, the “size of necrotic areas in tumors” value is reported as “decreased”. Besides, the “hypoxic areas (CAIX) in tumors” value with RT-HAM-001 tumors (not statistically significant) is “appeared to decrease hypoxia in half of the tumors”.

The term Cmax denotes the maximum level reached in the sampled fluid or tissue. Broadly, the pIC50 is the negative decadic logarithm of the IC50, by convention in mol/L. Read a low pIC50 as a high IC50.

For the origin of these results see paper PMC10035370, “Targeting Tumor Angiogenesis with the Selective VEGFR-3 Inhibitor EVT801 in Combination with Cancer Immunotherapy” (Cancer Research Communications, 2022).
